Literature values as cited in patent publication US6245354A, “Drug delivery system using galactoxyloglucan” (Dainippon Pharmaceutical Co., Ltd., priority 1996, dated 2001).

SMILES: CO[C@@]12[C@H](COC(N)=O)C3=C(C(=O)C(C)=C(N)C3=O)N1C[C@@H]1N[C@@H]12 [mitomycin C]
- transfer to systemic circulation (administered into the abdominal cavity): rapidly transferred to a systemic circulation
- therapeutic effects (peritoneal tumors, carcinomatous peritonitis, into the abdominal cavity): can not exhibit sufficient therapeutic effects
